Values joined by “and” are separate entries in the source; they are usually repeats but may differ in a detail not shown here. Equal entries are not always repeated. Toxic doses and inconclusive results are not listed. Rule for the calls: active = survival T/C of 150% or more; inactive = T/C below 125% in these data.
Test system: CD2F1 mice, L1210 leukemia ip, survival T/C
Test: NCI In Vivo Anticancer Drug Screen. Data for tumor model L1210 Leukemia (intraperitoneal) in CD2F1 (CDF1) mice
Conditions: higher = longer survival
In short: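 Implant tumor; dose compound or vehicle; measure endpoint in both groups; report treated divided by control.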

[1] = endpoint: mean survival time, dose: 100.0 mg/kg/injection, schedule: Q01DX001 (ip), vehicle: saline with Tween-80
[2] = endpoint: mean survival time, dose: 200.0 mg/kg/injection, schedule: Q01DX001 (ip), vehicle: saline with Tween-80
[3] = endpoint: mean survival time, dose: 100.0 mg/kg/injection, schedule: Q04DX003 (ip), vehicle: saline with Tween-80
[4] = endpoint: mean survival time, dose: 200.0 mg/kg/injection, schedule: Q04DX003 (ip), vehicle: saline with Tween-80
[5] = endpoint: mean survival time, dose: 100.0 mg/kg/injection, schedule: Q01DX009 (ip), vehicle: saline with Tween-80
[6] = endpoint: mean survival time, dose: 200.0 mg/kg/injection, schedule: Q01DX009 (ip), vehicle: saline with Tween-80
[7] = endpoint: mean survival time, dose: 400.0 mg/kg/injection, schedule: Q01DX009 (ip), vehicle: saline with Tween-80
[8] = endpoint: mean survival time, dose: 50.0 mg/kg/injection, schedule: Q01DX009 (ip), vehicle: saline with Tween-80
[9] = endpoint: mean survival time, dose: 400.0 mg/kg/injection, schedule: Q04DX003 (ip), vehicle: saline with Tween-80

Measured: T/C

CC(C)(CO)NC(=O)CC1CCCCC1
inactive: [1] 103 % of control | [2] 103 % of control | endpoint: mean survival time, dose: 400.0 mg/kg/injection, schedule: Q01DX001 (ip), vehicle: saline with Tween-80 100 % of control

CN1CCCC1CN1c2ccccc2Sc2ccccc21 (stereo not given)
inactive: endpoint: mean survival time, dose: 100.0 mg/kg/injection, schedule: Q04DX003 (ip), vehicle: saline 102 % of control

CSc1ncc(C(=O)O)c(SC(C)C)n1
inactive: endpoint: mean survival time, dose: 50.0 mg/kg/injection, schedule: Q04DX003 (ip), vehicle: saline with Tween-80 91 % of control | [1] 102 % of control | [3] 93 % of control | [2] 92 % of control | [4] 87 % of control

O=C(O)CC1CCC(CC(=O)O)CC1 (stereo not given)
inactive: [5] 101 % of control | [6] 104 % of control | [7] 101 % of control

O=C(O)CC1CCC1CC(=O)O (stereo not given)
inactive: [8] 90 % of control | [5] 96 % of control and 100 % of control | [6] 96 % of control and 103 % of control

O=NNc1ccc(Cl)cn1
inactive: endpoint: median survival time, dose: 1.5 mg/kg/injection, schedule: Q01DX009 (ip), vehicle: water 110 % of control | endpoint: median survival time, dose: 1.56 mg/kg/injection, schedule: Q01DX009 (ip), vehicle: water 104 % of control | endpoint: median survival time, dose: 3.0 mg/kg/injection, schedule: Q01DX009 (ip), vehicle: water 114 % of control | endpoint: median survival time, dose: 3.12 mg/kg/injection, schedule: Q01DX009 (ip), vehicle: water 117 % of control | endpoint: median survival time, dose: 6.0 mg/kg/injection, schedule: Q01DX009 (ip), vehicle: water 119 % of control | endpoint: median survival time, dose: 12.5 mg/kg/injection, schedule: Q01DX009 (ip), vehicle: water 104 % of control | endpoint: median survival time, dose: 24.0 mg/kg/injection, schedule: Q01DX009 (ip), vehicle: water 107 % of control

NC(CCl)=NCC1C2CC3CC(C2)CC1C3 (stereo not given)
inactive: endpoint: mean survival time, dose: 6.25 mg/kg/injection, schedule: Q04DX002 (ip), vehicle: saline 96 % of control | endpoint: mean survival time, dose: 12.5 mg/kg/injection, schedule: Q04DX002 (ip), vehicle: saline 93 % of control | endpoint: mean survival time, dose: 25.0 mg/kg/injection, schedule: Q04DX002 (ip), vehicle: saline 90 % of control | endpoint: mean survival time, dose: 50.0 mg/kg/injection, schedule: Q04DX002 (ip), vehicle: saline 96 % of control | endpoint: mean survival time, dose: 100.0 mg/kg/injection, schedule: Q01DX001 (ip), vehicle: Klucel (hydroxypropylcellulose) (HPC) 107 % of control | endpoint: mean survival time, dose: 200.0 mg/kg/injection, schedule: Q01DX001 (ip), vehicle: Klucel (hydroxypropylcellulose) (HPC) 98 % of control

CCOC(=O)CNC(=O)Nc1ccccc1OCC
inactive: [8] 89 % of control | [5] 89 % of control | [6] 93 % of control

C=C(Br)CN(CC)C(C)=O
inactive: endpoint: mean survival time, dose: 12.5 mg/kg/injection, schedule: Q01DX009 (ip), vehicle: saline 102 % of control | endpoint: mean survival time, dose: 12.5 mg/kg/injection, schedule: Q04DX003 (ip), vehicle: saline 96 % of control | endpoint: mean survival time, dose: 25.0 mg/kg/injection, schedule: Q01DX009 (ip), vehicle: saline 97 % of control | endpoint: mean survival time, dose: 25.0 mg/kg/injection, schedule: Q04DX003 (ip), vehicle: saline 95 % of control | endpoint: mean survival time, dose: 50.0 mg/kg/injection, schedule: Q01DX009 (ip), vehicle: saline 114 % of control | endpoint: mean survival time, dose: 50.0 mg/kg/injection, schedule: Q04DX003 (ip), vehicle: saline 104 % of control

ClCCN(CCCl)c1ccc(CCN2CCCCC2)cc1
inactive: endpoint: mean survival time, dose: 3.12 mg/kg/injection, schedule: Q01DX009 (ip), vehicle: Klucel (hydroxypropylcellulose) (HPC) 106 % of control | endpoint: mean survival time, dose: 6.25 mg/kg/injection, schedule: Q01DX009 (ip), vehicle: Klucel (hydroxypropylcellulose) (HPC) 106 % of control | endpoint: mean survival time, dose: 12.5 mg/kg/injection, schedule: Q01DX009 (ip), vehicle: Klucel (hydroxypropylcellulose) (HPC) 121 % of control and 108 % of control | endpoint: mean survival time, dose: 25.0 mg/kg/injection, schedule: Q01DX009 (ip), vehicle: Klucel (hydroxypropylcellulose) (HPC) 118 % of control

C1CCC(C2CCCC[N-]2)[N-]C1.[Cl][Pt].[NH-]CC(=O)O (stereo not given)
inactive: endpoint: median survival time, dose: 10.0 mg/kg/injection, schedule: Q04DX003 (ip), vehicle: saline 101 % of control | endpoint: median survival time, dose: 20.0 mg/kg/injection, schedule: Q04DX003 (ip), vehicle: saline 105 % of control | endpoint: median survival time, dose: 40.0 mg/kg/injection, schedule: Q04DX003 (ip), vehicle: saline 98 % of control | endpoint: median survival time, dose: 80.0 mg/kg/injection, schedule: Q04DX003 (ip), vehicle: saline 95 % of control and 96 % of control | endpoint: median survival time, dose: 160.0 mg/kg/injection, schedule: Q04DX003 (ip), vehicle: saline 90 % of control | endpoint: median survival time, dose: 320.0 mg/kg/injection, schedule: Q04DX003 (ip), vehicle: saline 101 % of control

C=C1CC(C)(Cn2cnc3c(=O)[nH]cnc32)OC1=O (stereo not given)
inactive: endpoint: median survival time, dose: 3.13 mg/kg/injection, schedule: Q01DX005 (ip), vehicle: water 94 % of control | endpoint: median survival time, dose: 6.25 mg/kg/injection, schedule: Q01DX005 (ip), vehicle: water 94 % of control | endpoint: median survival time, dose: 12.5 mg/kg/injection, schedule: Q01DX005 (ip), vehicle: water 98 % of control | endpoint: median survival time, dose: 25.0 mg/kg/injection, schedule: Q01DX005 (ip), vehicle: water 92 % of control

O=C(O)c1c(O)cccc1O
inactive: endpoint: mean survival time, dose: 50.0 mg/kg/injection, schedule: Q01DX001 (ip), vehicle: saline 98 % of control | endpoint: mean survival time, dose: 100.0 mg/kg/injection, schedule: Q01DX001 (ip), vehicle: saline 98 % of control | endpoint: mean survival time, dose: 200.0 mg/kg/injection, schedule: Q01DX001 (ip), vehicle: saline 101 % of control

C=CCN1C(=O)c2ccccc2C1=O
inactive: [5] 98 % of control | [3] 97 % of control | [6] 94 % of control | [4] 101 % of control | [7] 100 % of control | [9] 101 % of control

CCCCCCCCCCCCCCCC[N+](C)(C)C
inactive: endpoint: mean survival time, dose: 1.25 mg/kg/injection, schedule: Q01DX009 (ip), vehicle: saline with Tween-80 96 % of control | endpoint: mean survival time, dose: 2.5 mg/kg/injection, schedule: Q01DX009 (ip), vehicle: saline with Tween-80 98 % of control | endpoint: mean survival time, dose: 5.0 mg/kg/injection, schedule: Q01DX009 (ip), vehicle: saline with Tween-80 94 % of control and 97 % of control | endpoint: mean survival time, dose: 5.0 mg/kg/injection, schedule: Q04DX003 (ip), vehicle: saline 96 % of control | endpoint: mean survival time, dose: 10.0 mg/kg/injection, schedule: Q04DX003 (ip), vehicle: saline 98 % of control | endpoint: mean survival time, dose: 20.0 mg/kg/injection, schedule: Q04DX003 (ip), vehicle: saline 95 % of control

O=C(OC1(c2ccccc2)C2C=CC1CC2)c1ccc([N+](=O)[O-])cc1 (stereo not given)
inactive: endpoint: mean survival time, dose: 50.0 mg/kg/injection, schedule: Q04DX002 (ip), vehicle: saline with Tween-80 102 % of control | endpoint: mean survival time, dose: 100.0 mg/kg/injection, schedule: Q04DX002 (ip), vehicle: saline with Tween-80 98 % of control | endpoint: mean survival time, dose: 200.0 mg/kg/injection, schedule: Q04DX002 (ip), vehicle: saline with Tween-80 95 % of control

NC(=O)c1ccc[n+](CCc2c[nH]c3ccccc23)c1
inactive: endpoint: mean survival time, dose: 18.75 mg/kg/injection, schedule: Q01DX009 (ip), vehicle: saline with Tween-80 101 % of control | endpoint: mean survival time, dose: 37.5 mg/kg/injection, schedule: Q01DX009 (ip), vehicle: saline with Tween-80 92 % of control | endpoint: mean survival time, dose: 75.0 mg/kg/injection, schedule: Q01DX009 (ip), vehicle: saline with Tween-80 103 % of control | endpoint: mean survival time, dose: 75.0 mg/kg/injection, schedule: Q04DX003 (ip), vehicle: saline with Tween-80 88 % of control

CCCCCCCCOc1ccc(/C=N\N=C\c2ccc(OCCCCCCCC)cc2)cc1
inactive: [3] 94 % of control | [4] 94 % of control | [9] 94 % of control

C/C(CC(=O)Nc1ccccn1)=N\c1ccccn1
inactive: [3] 96 % of control | [4] 94 % of control

O=C(O)c1ccccc1.[Cu+2]
inactive: endpoint: mean survival time, dose: 5.0 mg/kg/injection, schedule: Q01DX001 (ip), vehicle: saline 96 % of control | endpoint: mean survival time, dose: 10.0 mg/kg/injection, schedule: Q01DX001 (ip), vehicle: saline 91 % of control | endpoint: mean survival time, dose: 20.0 mg/kg/injection, schedule: Q01DX001 (ip), vehicle: saline 107 % of control | endpoint: mean survival time, dose: 40.0 mg/kg/injection, schedule: Q01DX001 (ip), vehicle: saline 102 % of control | endpoint: mean survival time, dose: 80.0 mg/kg/injection, schedule: Q01DX001 (ip), vehicle: saline 107 % of control

[O]=[Sb]([c]1ccccc1)([c]1ccccc1)[c]1ccccc1
inactive: [3] 101 % of control

CNc1ccc(C(=O)O)cc1OC
inactive: [3] 100 % of control | [4] 100 % of control | [9] 103 % of control

O=Cc1c[nH]c2ccc(Br)cc12
inactive: endpoint: mean survival time, dose: 100.0 mg/kg/injection, schedule: Q01DX009 (ip), vehicle: saline 105 % of control | endpoint: mean survival time, dose: 200.0 mg/kg/injection, schedule: Q01DX009 (ip), vehicle: saline 113 % of control | endpoint: mean survival time, dose: 400.0 mg/kg/injection, schedule: Q01DX009 (ip), vehicle: saline 100 % of control
